Consider 21 molecules from patent US9796696B2, “Substituted arylcyclopentenes as therapeutic agents” (Allergan, Inc., priority 2007, dated 2017).

SMILES strings stand for the structures.

The target of data set [1] is T1, EP2 (Homo sapiens, UniProt P43116). In words: EP2 cAMP EC50 (in vitro testing). Type of data set: cell-based. From the text:
(§1) U.S. patent application Ser. No. 11/553,143, filed on Oct. 26, 2006, describes the methods used to obtain the in vitro data in the tables below.

The target of data set [2] is T1, EP2. In words: EP2 Ki (in vitro testing). In kind it is binding.
Source text: as §1

For data set [3], the target named is T1, EP2. Kind of data set: EP2 Ca2+ EC50 (in vitro testing). Type of data set: cell-based.
Source text: as §1

The target of data set [4] is T2, EP4 (Homo sapiens, UniProt P35408). Kind of data set: EP4 Ki (in vitro testing). The settings on record: read-out: EP4 Ki EC50. Type of data set: binding.
T2 sequence (P35408 whole entry): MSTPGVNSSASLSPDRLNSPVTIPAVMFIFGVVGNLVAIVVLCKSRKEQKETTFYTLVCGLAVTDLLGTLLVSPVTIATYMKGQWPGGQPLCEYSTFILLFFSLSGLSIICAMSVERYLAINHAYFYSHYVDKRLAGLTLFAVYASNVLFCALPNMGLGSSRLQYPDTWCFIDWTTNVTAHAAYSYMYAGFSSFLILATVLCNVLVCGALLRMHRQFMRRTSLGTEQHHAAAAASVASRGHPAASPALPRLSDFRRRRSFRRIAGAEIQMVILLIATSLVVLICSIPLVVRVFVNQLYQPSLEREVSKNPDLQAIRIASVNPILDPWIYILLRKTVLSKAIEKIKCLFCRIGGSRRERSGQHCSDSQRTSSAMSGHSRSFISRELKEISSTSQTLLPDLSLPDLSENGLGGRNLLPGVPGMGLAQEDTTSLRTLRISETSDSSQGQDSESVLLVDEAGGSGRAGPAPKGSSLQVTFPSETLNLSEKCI
Source text: as §1

For data set [5], the target named is T2, EP4. Kind of data set: EP4 Ca2+ EC50 (in vitro testing). In kind it is cell-based.
Source text: as §1

Data set [6] concerns the target T3, EP3 (Homo sapiens, UniProt P43115).
T3 sequence (P43115 1-390): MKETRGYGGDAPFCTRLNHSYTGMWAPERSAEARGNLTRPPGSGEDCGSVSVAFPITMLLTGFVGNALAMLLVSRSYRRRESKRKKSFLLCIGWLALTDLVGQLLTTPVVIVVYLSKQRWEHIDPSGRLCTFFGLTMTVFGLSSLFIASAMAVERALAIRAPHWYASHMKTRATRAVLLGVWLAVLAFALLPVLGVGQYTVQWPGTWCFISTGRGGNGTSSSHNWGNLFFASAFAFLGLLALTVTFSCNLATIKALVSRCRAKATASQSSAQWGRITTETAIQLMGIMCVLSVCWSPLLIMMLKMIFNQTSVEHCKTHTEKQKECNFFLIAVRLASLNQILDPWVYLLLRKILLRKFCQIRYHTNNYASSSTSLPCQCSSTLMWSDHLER
Kind of data set: Other receptors Ca2+ EC50: EP3. In kind it is cell-based. To be noted: NA not defined in the patent.
Source text: as §1

The nature of data set [7]: In vivo testing, Max. ΔIOP, Max. hyperemia. From the text:
(§2) U.S. Pat. No. 7,091,231 describes the methods used for these in vivo tests.

Data set [8] is described as follows: In vivo testing, Max. ΔIOP.
Source text: as §2

Data set [9] concerns the target T4, DP (Homo sapiens, UniProt Q13258).
T4 sequence (Q13258 1-359): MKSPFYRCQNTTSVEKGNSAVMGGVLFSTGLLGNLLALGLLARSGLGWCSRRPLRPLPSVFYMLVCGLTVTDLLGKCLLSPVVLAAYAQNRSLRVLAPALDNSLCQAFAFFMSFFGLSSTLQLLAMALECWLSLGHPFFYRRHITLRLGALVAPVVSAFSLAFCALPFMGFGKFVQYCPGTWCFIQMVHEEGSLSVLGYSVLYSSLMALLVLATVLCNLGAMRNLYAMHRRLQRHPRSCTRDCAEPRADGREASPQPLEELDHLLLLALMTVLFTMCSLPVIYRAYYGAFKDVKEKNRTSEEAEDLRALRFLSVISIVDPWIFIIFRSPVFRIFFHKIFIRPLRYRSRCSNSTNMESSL
In words: Other receptors Ca2+ EC50: DP. In kind it is cell-based. The settings on record: NA not defined in the patent.
Source text: as §1

T1 sequence (P43116 whole entry): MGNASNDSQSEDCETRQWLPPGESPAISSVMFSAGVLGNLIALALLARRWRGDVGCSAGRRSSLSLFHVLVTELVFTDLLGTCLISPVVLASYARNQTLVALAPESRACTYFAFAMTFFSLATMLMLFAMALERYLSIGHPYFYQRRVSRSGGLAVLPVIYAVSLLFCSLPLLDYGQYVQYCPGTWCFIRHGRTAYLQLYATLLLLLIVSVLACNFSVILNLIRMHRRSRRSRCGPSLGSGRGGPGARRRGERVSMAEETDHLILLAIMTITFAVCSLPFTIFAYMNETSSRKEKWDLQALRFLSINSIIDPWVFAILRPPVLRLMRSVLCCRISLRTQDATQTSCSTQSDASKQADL

On to `CCCCC[C@H](O)c1ccc(C2=C(Cl)CC[C@@H]2CCCc2ccc(C(=O)O)s2)cc1`, for which the EC50 in data set [1] is 0.6 nM; in [3], 355 nM; in data set [5], above 10000 nM; in data set [6], 1490 nM. Moreover, the results for the Ki in data set [2] and in data set [4] were 16 nM and 3680 nM, respectively.

Consider `CCCCC[C@@H](O)c1ccc(C2=C(Cl)CC[C@@H]2CCCc2ccc(C(=O)O)s2)cc1`, for which the EC50 is 0.2 nM in data set [1], 83 nM in [3] and above 10000 nM in data set [5]. Besides, the figures for the Ki in data set [2] and in [4] were 5 nM and 914 nM, respectively.

Regarding `CCCCCC(O)c1ccc(C2=CCC[C@@H]2CCCc2ccc(C(=O)O)s2)cc1` (stereo partly drawn), the EC50 in data set [1] is 0.9 nM; in [3] it was 19 nM; in [5], above 10000 nM. For the same molecule, the inhibition constant (Ki) in data set [2] is 5 nM; in [4], 1180 nM.

`CCCCCC(O)c1ccc(C2=C(F)CC[C@@H]2CCCc2ccc(C(=O)O)s2)cc1` (stereo partly drawn): the EC50 was 0.2 nM in data set [1], 27 nM in [3], 2960 nM in data set [5] and 1820 nM in data set [6]. The Ki in [2] was 2.4 nM; in [4], above 10000 nM.

`CCCCCC(O)c1ccc(C2=C(C#N)CC[C@@H]2CCCc2ccc(C(=O)O)s2)cc1` (stereo partly drawn): the EC50 in data set [1] came out at 154 nM; in data set [6] it was 8560 nM. The figures for the Ki in data set [2] and in data set [4] were 1370 nM and 175 nM, respectively.

On to `CCCCCC(O)c1ccc(C2=C(C#N)CC[C@@H]2CCCc2ccc(C(=O)O)s2)cc1` (single isomer, unassigned) [Compound 3], for which, in [7] (Conc. 0.003 g/100 mL), the Max. hyperemia turned out to be 1.3 and the “Max. ΔIOP (%)” value worked out at 35%. The “Max. ΔIOP (%)” value in data set [8] (Conc. 0.003 g/100 mL) was determined as 46%.

For the molecule `CCCCCC(O)c1ccc(C2=C(C#N)CC[C@@H]2CCCc2ccc(C(=O)O)s2)cc1` (single isomer, unassigned) [Compound 4], in data set [7] (Conc. 0.003 g/100 mL), the Max. hyperemia stood at 1.4 and the “Max. ΔIOP (%)” value was determined as 35%. The “Max. ΔIOP (%)” value in data set [8] (Conc. 0.003 g/100 mL) came out at 39%.

Take `CCCCCC(O)c1ccc(C2=C(C#N)CC[C@@H]2CCCc2ccc(C(=O)O)s2)cc1` (single isomer, unassigned) [drawing 84]: the EC50 was 0.45 nM in data set [1], 74 nM in data set [3], 2800 nM in data set [5] and 3540 nM in [6]. For the same molecule, the Ki in [2] is 5 nM; in data set [4] it was above 10000 nM.

Consider `CCCCCC(O)c1ccc(C2=C(C#N)CC[C@@H]2CCCc2ccc(C(=O)O)s2)cc1` (single isomer, unassigned) [drawing 85], for which the EC50 in data set [1] came out at 0.4 nM; in data set [3] it was 65 nM; in data set [5], 3350 nM; in [6] it was 202 nM. Also, the Ki in [2] turned out to be 3 nM; in data set [4] it was 16000 nM.

Regarding `CCCCCC(O)c1ccc(C2=C(Cl)CC[C@@H]2CCCc2ccc(C(=O)O)s2)cc1` (stereo partly drawn) [Compound 1], in data set [7] (Conc. 0.01 g/100 mL), the Max. hyperemia came to 1.7 and the “Max. ΔIOP (%)” value was 39%. Further, the “Max. ΔIOP (%)” value in [8] (0.1% dose) is given as 62 (0.1% dose).

In the case of `CCCCCC(O)c1ccc(C2=C(Cl)CC[C@@H]2CCCc2ccc(C(=O)OC(C)C)s2)cc1` (stereo partly drawn) [Compound 2], in data set [7] (Conc. 0.1 g/100 mL), the Max. hyperemia is on record as 1.7 and the “Max. ΔIOP (%)” value is listed as 21%. In addition, the “Max. ΔIOP (%)” value in data set [8] (0.1% dose) was found to be 26%.

Molecule `CCCCCC(O)c1ccc(C2=C(C#N)CC[C@@H]2CCCc2ccc(C(=O)OCCO)s2)cc1` (stereo partly drawn) [Compound 5] came in with a Max. hyperemia in data set [7] (Conc. 0.01 g/100 mL) of 1.9. Besides, the “Max. ΔIOP (%)” value in data set [7] (Conc. 0.01 g/100 mL) is 41%; in [8] (Conc. 0.01 g/100 mL), 53%.

On to `CCCCC[C@H](O)c1ccc(C2=CCC[C@@H]2CCCc2ccc(C(=O)O)s2)cc1` [Compound 6], for which, in [7] (Conc. 0.01 g/100 mL), the Max. hyperemia came out at 2.0 and the “Max. ΔIOP (%)” value is 32%. Further, in data set [8] (Conc. 0.01 g/100 mL), the “Max. ΔIOP (%)” value was found to be 31%.

Take `CCCCC[C@@H](O)c1ccc(C2=CCC[C@@H]2CCCc2ccc(C(=O)O)s2)cc1` [Compound 7]: in data set [7] (Conc. 0.01 g/100 mL), the Max. hyperemia came to 1.8 and the “Max. ΔIOP (%)” value is reported as 37%.

`CCCCCC(O)c1ccc(C2=C(Br)CC[C@@H]2CCCc2ccc(C(=O)O)s2)cc1` (stereo partly drawn) [drawing 79]: the EC50 is 0.4 nM in [1], 403 nM in [3], above 10000 nM in [5] and 2340 nM in data set [6]. Also, the results for the Ki in data set [2] and in data set [4] were 1.5 nM and 966 nM, respectively.

Consider `CCCCCC(O)c1ccc(C2=C(CO)CC[C@@H]2CCCc2ccc(C(=O)O)s2)cc1` (stereo partly drawn) [drawing 81], for which the EC50 is 48 nM in data set [1], 119 nM in data set [3], above 10000 nM in [5] and 6980 nM in data set [6]. Also, the Ki in data set [2] came to 53 nM; in [4], 1540 nM.

With `CCCCCC(O)c1ccc(C2=C(O)C(=O)C[C@@H]2C/C=C\CCCC(=O)O)cc1` (stereo partly drawn) [drawing 82], the EC50 in data set [1] is 54 nM; in data set [3] it was 442 nM; in [5] it was above 10000 nM; in data set [6], 9640 nM. For the same molecule, the Ki in [2] was 313 nM; in data set [4], 785 nM.

Take `CCCCCC(O)c1ccc(C2C(Br)=CC[C@@H]2CCCc2ccc(C(=O)O)s2)cc1` (stereo partly drawn) [drawing 83]: the EC50 in data set [1] was 0.7 nM; in data set [3], 847 nM; in data set [5] it was above 10000 nM; in data set [6] it was 3220 nM. For the same molecule, the Ki was 5 nM in data set [2] and 522 nM in data set [4].

In the case of `CCCCC[C@H](O)c1ccc(C2=CCC[C@@H]2CCCc2ccc(C(=O)O)s2)cc1` [drawing 86], the EC50 in data set [1] was 1 nM; in [3] it was 27 nM; in data set [6] it was 3090 nM; in data set [9], 7740 nM. This molecule also came in with a Ki in data set [2] of 18 nM.

With `CCCCC[C@@H](O)c1ccc(C2=CCC[C@@H]2CCCc2ccc(C(=O)O)s2)cc1` [drawing 87], the EC50 in [1] was 0.8 nM; in [3], 36 nM; in data set [6], 5890 nM; in data set [9], 9920 nM. For the same molecule, the Ki in [2] came out at 10 nM; in data set [4], 16300 nM.

Regarding `CCCCCC(O)c1ccc(C2=C(C)CC[C@@H]2CCCc2ccc(C(=O)O)s2)cc1` (stereo partly drawn) [drawing 88], the EC50 in [1] came to 4 nM; in data set [3], 193 nM; in data set [5] it was 955 nM; in data set [6], 7340 nM. Also, the results for the Ki in data set [2] and in [4] were 16 nM and above 10000 nM, respectively.
